Among the data in patent publication US20240116910A1, “Heterocycles as WIP1 Inhibitors” (PMV Pharmaceuticals, Inc., priority 2022, published 2024) are IC50 values, retold here.

Test [1] concerns the target recombinant His-tag Wip1 full length protein (amino acids #1-605) (Homo sapiens (Human), UniProt O15297). The test is described as follows: Wip1 full length phosphatase enzyme FDP assay. Type of test: biochemical. As to conditions: fluorescein diphosphate (FDP) substrate, RT 2 hours, fluorescence Ex485/Em535. On the procedure:
The Human Wip1 (2-420, aa 2-420) or Wip1 full length (aa 1-605) DNA sequence was codon optimized and synthesized by Genscript for insect cell expression. The open reading frame of Wip1(2-420) with a N-terminal-His6 affinity tag followed by a TEV cleavage site was subcloned sites into the pFastBac1 expression vector. The recombinant bacmid DNA was transfected in Sf9 insect cells for baculovirus production. After 72 hours infection, the Sf9 cells were harvested by centrifugation and resuspended in lysis buffer containing 50 mM Tris/HCl, pH 8.0, 500 mM NaCl, 20% glycerol, Benzonase 0.5% CHAPS and Roche cOmplete™ EDTA free protease inhibitors. Cells were disrupted with microfluidizer and the debris was removed by centrifugation at 185,000 g for 1 hour. The supernatant was subjected to HisTrap FF for affinity purification. Proteins were eluted with a linear gradient of 0-500 mM imidazole in HisTrap buffer containing 50 mM Tris/HCl, pH 8.0, 500 mM NaCl and 20% glycerol, 0.05% CHAPS. The eluted protein was dialyzed against dialysis buffer (20 mM MES, 100 mM NaCl, 20% glycerol, 0.5 mM TCEP, 0.05% CHAPS) followed purification via HiTrap SP HP column. The protein was eluted with a gradient of 100 mM-2 M NaCl in dialysis buffer. His6-[…] was finally concentrated and loaded onto a size-exclusion column (NiLoad 16/600 Superdex 200 pg, GE Healthcare) pre-equilibrated with 50 mM MOPS (pH 7.5), 200 mM NaCl, 20% glycerol, 1 mM TCEP, 0.05% CHAPS and 0.1 mM EGTA. The peak fractions containing purified Nis6-Wip1(2-420) were pooled and concentrated to 1.0 mg/mL and flash frozen at −80° C.
Wip1 Length and Wip1(2-420) Phosphatase Enzyme FDP Assays.
Test compounds (252 mM stock in DMSO) were diluted 3 folds in series in DMSO and 1.2 μl per well were added into 384-well polypropylene black plates (Nunc). Twelve μl per well of Assay Buffer (100 mM NaCl, 50 mM MOPS, pH 7.5, 0.8 mM CHAPS, 0.1 mM EGTA, 30 mM MgCl2, 0.3 mM TCEP, 0.2 mg/mL BSA) was added followed by […] per well of 50.4 nM recombinant His-tag Wip1 full length protein (amino acids #1-605) or recombinant His-tag Wip1(2-420) protein (amino acids #2-420) in Assay Buffer and the plate was incubated at RT (22° C.) for 5 min. Ten mM of fluorescein diphosphate (FDP) in DMSO was diluted to […] in Assay Buffer and […] per well was added to the plate and incubated at RT (22° C.) for 2 hours. […] per well of 64.1 mM EDTA in water were added to stop the enzyme reaction. The plate was centrifuged at 1,200 rpm (Eppendorf 5810R Plate centrifuge) for 1 minute and fluorescence intensity (Ex485/Em535) was measured on Perkin Elmer Victor Reader. EC50 values were calculated using either Prism (GraphPad) or ActivityBase software (IDBS), The IC50 results are provided in Table M.

The target of test [2] is recombinant His-tag Wip1(2-420) protein (amino acids #2-420) (Homo sapiens (Human), UniProt O15297). The test is described as follows: Wip1(2-420) phosphatase enzyme FDP assay. The conditions noted are these: fluorescein diphosphate (FDP) substrate, RT 2 hours, fluorescence Ex485/Em535; read-out: WIP1 (Truncated 2-420) FDP Assay: IC50. Type of test: biochemical.
recombinant His-tag Wip1(2-420) protein (amino acids #2-420), sequence (O15297 2-420): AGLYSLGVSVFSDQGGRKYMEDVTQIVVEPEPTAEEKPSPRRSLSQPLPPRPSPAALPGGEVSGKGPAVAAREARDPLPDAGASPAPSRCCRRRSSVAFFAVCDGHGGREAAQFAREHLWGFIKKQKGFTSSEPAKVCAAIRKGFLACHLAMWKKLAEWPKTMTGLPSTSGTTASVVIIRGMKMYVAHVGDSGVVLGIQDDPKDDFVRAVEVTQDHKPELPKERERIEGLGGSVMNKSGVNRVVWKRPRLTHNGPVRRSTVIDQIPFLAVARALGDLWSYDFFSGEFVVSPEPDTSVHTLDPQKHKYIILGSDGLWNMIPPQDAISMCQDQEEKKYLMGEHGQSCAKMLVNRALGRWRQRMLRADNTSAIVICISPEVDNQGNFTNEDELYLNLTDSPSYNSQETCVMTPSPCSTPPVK

recombinant His-tag Wip1 full length protein (amino acids #1-605), sequence (O15297 whole entry, the tested form may be a part): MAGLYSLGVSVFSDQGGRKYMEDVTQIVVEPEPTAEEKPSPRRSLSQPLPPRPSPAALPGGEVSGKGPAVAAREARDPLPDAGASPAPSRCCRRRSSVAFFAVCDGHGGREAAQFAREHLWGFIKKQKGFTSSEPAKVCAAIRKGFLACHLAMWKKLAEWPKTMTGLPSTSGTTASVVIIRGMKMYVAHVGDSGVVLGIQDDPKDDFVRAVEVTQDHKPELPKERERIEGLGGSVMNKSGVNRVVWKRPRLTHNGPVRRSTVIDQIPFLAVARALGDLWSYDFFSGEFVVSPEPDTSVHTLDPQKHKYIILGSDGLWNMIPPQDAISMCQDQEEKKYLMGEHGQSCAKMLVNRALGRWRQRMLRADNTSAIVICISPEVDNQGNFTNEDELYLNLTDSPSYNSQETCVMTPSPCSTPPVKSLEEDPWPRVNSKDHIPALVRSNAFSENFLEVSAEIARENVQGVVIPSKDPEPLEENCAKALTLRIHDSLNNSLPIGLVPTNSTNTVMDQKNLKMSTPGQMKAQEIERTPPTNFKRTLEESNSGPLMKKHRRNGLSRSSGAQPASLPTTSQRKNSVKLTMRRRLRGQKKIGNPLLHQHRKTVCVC

By IC50 is commonly meant the concentration needed to halve the response being measured. Consider `Cc1ncc(Cl)cc1N[C@@H](C)c1ccc(C(=O)N[C@@H](CC2CCCC2)C(=O)NC2CC3CCC(C2)O3)s1` (stereo partly drawn) [Compound 63, (2S)-2-({5-[(1S)-1-[(5-chloro-2-methylpyridin-3-yl)amino]ethyl]thiophen-2-yl}formamido)-3-cyclopentyl-N-{8-oxabicyclo[3.2.1]octan-3-yl}propanamide], for which the IC50 in test [1] came to 22 nM; in test [2], 15 nM. Taken in the same sequence, the figures for `Cc1ncc(Cl)cc1N[C@@H](C)c1ccc(C(=O)N[C@@H](CC2CCCC2)C(=O)N[C@H]2C[C@@H](F)C2)s1` [Compound 28, (2S)-2-({5-[(1S)-1-[(5-chloro-2-methylpyridin-3-yl)amino]ethyl]thiophen-2-yl}formamido)-3-cyclopentyl-N-[(1s,3s)-3-fluorocyclobutyl]propanamide] were 7 nM and 4 nM. As for `Cc1ccc(NC(=O)[C@H](CC2CCCC2)NC(=O)c2ccc([C@H](C)Nc3cc(Cl)cnc3C)s2)cn1` [Compound 53, (2S)-2-({5-[(1S)-1-[(5-chloro-2-methylpyridin-3-yl)amino]ethyl]thiophen-2-yl}formamido)-3-cyclopentyl-N-(6-methylpyridin-3-yl)propanamide], the values for the IC50 in test [1] and in test [2] were 8 nM and 5 nM, respectively. `O=C(N[C@@H](CC1CCCCC1)C(=O)NC1CCOCC1)c1cnc(CNc2ccnc(C(F)(F)F)c2)s1` [Compound 305, N-[(1S)-1-(cyclohexylmethyl)-2-oxo-2-(tetrahydropyran-4-ylamino)ethyl]-2-[[[2-(trifluoromethyl)-4-pyridyl]amino]methyl]thiazole-5-carboxamide]: the IC50 in test [1] was 31 nM; in test [2] it was 90 nM. For `Cc1ncc(Cl)cc1N[C@@H](C)c1ccc(C(=O)N[C@@H](CC2CCCC2)C(=O)Nc2cnn(C3CCOCC3)c2)s1` [Compound 163, (2S)-2-({5-[(1S)-1-[(5-chloro-2-methylpyridin-3-yl)amino]ethyl]thiophen-2-yl}formamido)-3-cyclopentyl-N-[1-(oxan-4-yl)-1H-pyrazol-4-yl]propanamide] the same measures were 8 nM and 5 nM. Consider `CC[C@@H](Nc1cc(Cl)cnc1C)c1ccc(C(=O)N[C@@H](CC2CCCC2)C(=O)N[C@H]2CC2(F)F)s1` [Compound 51, (2S)-2-({5-[(1R)-1-[(5-chloro-2-methylpyridin-3-yl)amino]propyl]thiophen-2-yl}formamido)-3-cyclopentyl-N-[(1S)-2,2-difluorocyclopropyl]propanamide], for which the figures for the IC50 in test [1] and in test [2] were 113 nM and 74 nM, respectively. For the compound `COc1ncc(Cl)cc1N[C@@H](C)c1ccc(C(=O)N[C@@H](CC2CCCC2)C(=O)NC23CC(C#N)(C2)C3)s1` [Compound 82, (2S)-2-({5-[(1S)-1-[(5-chloro-2-methoxypyridin-3-yl)amino]ethyl]thiophen-2-yl}formamido)-N-{3-cyanobicyclo[1.1.1]pentan-1-yl}-3-cyclopentylpropanamide], the IC50 in test [1] came to 20 nM; in test [2] it was 13 nM. Taken in the same sequence, the figures for `Cc1cc(NC(=O)[C@H](CC2CCCC2)NC(=O)c2cnc(C(C)Nc3cccc(Cl)c3)s2)ccn1` (stereo partly drawn) [Compound 121, (2S)-2-[(2-{1-[(3-chlorophenyl)amino]ethyl}-1,3-thiazol-5-yl)formamido]-3-cyclopentyl-N-(2-methylpyridin-4-yl)propanamide] were 19 nM and 66 nM. As to `Cc1ncc(Cl)cc1N[C@@H](C)c1ccc(C(=O)N[C@@H](CCC(C)(C)C)C(=O)Nc2cnn(C)c2)s1` [Compound 160, (2S)-2-({5-[(1S)-1-[(5-chloro-2-methylpyridin-3-yl)amino]ethyl]thiophen-2-yl}formamido)-5,5-dimethyl-N-(1-methyl-1H-pyrazol-4-yl)hexanamide], the results for the IC50 in test [1] and in test [2] were 13 nM and 9 nM, respectively. For `C[C@H](Nc1cc(Cl)cnc1C1CC1)c1ccc(C(=O)N[C@@H](CC2CCCC2)C(=O)NC2CC2)s1` [Compound 70, (2S)-2-({5-[(1S)-1-[(5-chloro-2-cyclopropylpyridin-3-yl)amino]ethyl]thiophen-2-yl}formamido)-3-cyclopentyl-N-cyclopropylpropanamide] the same measures were 8 nM and 6 nM. Taken in the same sequence, the figures for `COCCOc1ccc(NC(=O)[C@H](CC2CCCC2)NC(=O)c2ccc([C@H](C)Nc3cc(Cl)cnc3C)s2)cc1` [Compound 59, (2S)-2-({5-[(1S)-1-[(5-chloro-2-methylpyridin-3-yl)amino]ethyl]thiophen-2-yl}formamido)-3-cyclopentyl-N-[4-(2-methoxyethoxy)phenyl]propanamide] were 7 nM and 5 nM. As to `Cc1ncc(Cl)cc1N[C@H](C)c1ccc(C(=O)N[C@@H](CC2CCCC2)C(=O)NC23CC(C2)C3)s1` [Compound 12, (2S)-N-{bicyclo[1.1.1]pentan-1-yl}-2-({5-[(1R)-1-[(5-chloro-2-methylpyridin-3-yl)amino]ethyl]thiophen-2-yl}formamido)-3-cyclopentylpropanamide], the IC50 in test [1] worked out at 356 nM; in test [2], 148 nM. For `Cc1ncc(Cl)cc1N[C@@H](C)c1ccc(C(=O)N[C@@H](CC2CCCC2)C(=O)N[C@H]2C[C@H](F)C2)s1` [Compound 29, (2S)-2-({5-[(1S)-1-[(5-chloro-2-methylpyridin-3-yl)amino]ethyl]thiophen-2-yl}formamido)-3-cyclopentyl-N-[(1r,3r)-3-fluorocyclobutyl]propanamide] the same measures were 7 nM and 3 nM.

Consider `Cc1ncc(Cl)cc1N[C@@H](C)c1ccc(C(=O)N[C@@H](CC2CCCC2)C(=O)NC23CC(C2)C3)s1` [Compound 11, (2S)-N-{bicyclo[1.1.1]pentan-1-yl}-2-({5-[(1S)-1-[(5-chloro-2-methylpyridin-3-yl)amino]ethyl]thiophen-2-yl}formamido)-3-cyclopentylpropanamide], for which the figures for the IC50 in test [1] and in test [2] were 9 nM and 6 nM, respectively. Taken in the same sequence, the figures for `Cc1ncc(Cl)cc1N[C@@H](C)c1ccc(C(=O)N[C@@H](CC2CCCC2)C(=O)NC23CC(C(=O)O)(C2)C3)s1` [Compound 43, 3-[(2S)-2-({5-[(1S)-1-[(5-chloro-2-methylpyridin-3-yl)amino]ethyl]thiophen-2-yl}formamido)-3-cyclopentylpropanamido]bicyclo[1.1.1]pentane-1-carboxylic acid] were 16 nM and 13 nM.

For `C[C@@H](Nc1cc(Cl)nc2ccnn12)c1ccc(C(=O)N[C@@H](CC2CCCC2)C(=O)NC2CC2)s1` [Compound 259, (2S)-2-({5-[(1R)-1-({5-chloropyrazolo[1,5-a]pyrimidin-7-yl}amino)ethyl]thiophen-2-yl}formamido)-3-cyclopentyl-N-cyclopropylpropanamide], the IC50 in test [2] came to 13 nM. On the same count and under the same terms, with `Cc1ncc(Cl)cc1N[C@@H](C)c1ccc(C(=O)N[C@@H](CC2CCCC2)C(=O)N[C@@H]2CC[C@H](F)C2)s1` [Compound 258, (2S)-2-({5-[(1S)-1-[(5-chloro-2-methylpyridin-3-yl)amino]ethyl]thiophen-2-yl}formamido)-3-cyclopentyl-N-[(1R,3S)-3-fluorocyclopentyl]propanamide] the figure was 7 nM; with `Cc1ncc(Cl)cc1N[C@@H](C)c1ccc(C(=O)N[C@@H](CC2CC3CC3C2)C(=O)Nc2cnn(C)c2)s1` (stereo partly drawn) [Compound 179, (2S)-3-{bicyclo[3.1.0]hexan-3-yl}-2-({5-[(1S)-1-[(5-chloro-2-methylpyridin-3-yl)amino]ethyl]thiophen-2-yl}formamido)-N-(1-methyl-1H-pyrazol-4-yl)propanamide], 4 nM.
